PubChem BioAssay (NCI)
Several values for one entry are separate records, joined by “and”; a condition that tells them apart may be missing. Equal values may be shown once.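 Exposure lasted 48 hours, with cells grown in 96-well plates and compounds tested at five concentrations. GI50 is the concentration that inhibits growth by half. At the TGI there is no net growth.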

How the values were obtained:
Test in all cases: NCI-60 cell line screen, 48 h
HCT-15 colon = system: HCT-15 colon
K-562 leukemia = system: K-562 leukemia
KM12 colon = system: KM12 colon
M14 melanoma = system: M14 melanoma
MALME-3M melanoma = system: MALME-3M melanoma
NCI-H522 lung = system: NCI-H522 lung
OVCAR-8 ovarian = system: OVCAR-8 ovarian
SF-295 CNS = system: SF-295 CNS
SK-OV-3 ovarian = system: SK-OV-3 ovarian
T-47D breast = system: T-47D breast

Compound	GI50 (HCT-15 colon)	TGI (HCT-15 colon)	GI50 (K-562 leukemia)	TGI (K-562 leukemia)	GI50 (KM12 colon) [µM]	TGI (KM12 colon)	GI50 (M14 melanoma)	TGI (M14 melanoma) [µM]	GI50 (MALME-3M melanoma)	TGI (MALME-3M melanoma)	GI50 (NCI-H522 lung) [µM]	TGI (NCI-H522 lung)	GI50 (OVCAR-8 ovarian)	TGI (OVCAR-8 ovarian)	GI50 (SF-295 CNS)	TGI (SF-295 CNS) [µM]	GI50 (SK-OV-3 ovarian)	TGI (SK-OV-3 ovarian)	GI50 (T-47D breast) [µM]	TGI (T-47D breast)
NS(=O)(=O)c1ccc(-n2nc(-c3ccc(Br)cc3)ccc2=O)cc1	> 10 µM	> 10 µM	4.85 µM	> 10 µM	> 10	> 10 µM	> 10 µM	> 10	7.71 µM	> 10 µM	2.09	> 10 µM	> 10 µM	> 10 µM	> 10 µM	> 10	> 10 µM	> 10 µM	> 10	> 10 µM
COc1ccc(-n2cc(-c3ccc(OC)c(OC)c3)[nH]c2=S)cc1Cl	> 100 µM	> 100 µM	> 100 µM	> 100 µM	> 100	> 100 µM	> 100 µM	> 100	> 100 µM	> 100 µM	> 100	> 100 µM	–	–	41 µM	> 100	> 100 µM	> 100 µM	> 100	> 100 µM
O=C1c2ccccc2-c2c1c1cc3c(cc1c(=O)n2CCCCl)OCO3	> 100 µM	> 100 µM	99.8 µM	> 100 µM	24.1	> 100 µM	65.3 µM	> 100	–	–	16.8	> 100 µM	22.6 µM	> 100 µM	16.2 µM	46.8	> 100 µM	> 100 µM	> 100	> 100 µM
COc1ccccc1NC(=O)c1ccc(/C=C/C(=O)c2nccn2C)cc1	0.363 µM	0.843 µM	0.588 µM	11.6 µM	0.44	0.872 µM	0.536 µM	1.31	0.616 µM	1.73 µM	0.584	1.52 µM	0.916 µM	10.1 µM	0.658 µM	1.76	1.06 µM	10.7 µM	0.711	2.58 µM
Cn1cc(C2=C(c3ccc(OC[C@@H](O)CO)cc3)C(=O)NC2=O)c2ccccc21	> 25 µM	> 25 µM	> 25 µM	> 25 µM	> 25	> 25 µM	> 25 µM	> 25	> 25 µM	> 25 µM	> 25	> 25 µM	> 25 µM	> 25 µM	> 25 µM	> 25	> 25 µM	> 25 µM	> 25	> 25 µM
CCN1CCN(c2nc(NCCNc3ccnc4cc(Cl)ccc34)c3ccccc3n2)CC1	1.52 µM	5.25 µM	1.03 µM	3.89 µM	1.63	5.18 µM	1.59 µM	3.36	1.95 µM	3.58 µM	2.14	4.54 µM	1.89 µM	5.96 µM	1.33 µM	2.74	2.13 µM	4.71 µM	1.92	4.42 µM
CN(C)CCNc1nc2ccccc2c2[nH]c3ccccc3c12	–	–	0.748 µM	9.23 µM	0.328	2.92 µM	0.41 µM	1.71	–	–	1.33	–	0.535 µM	9.93 µM	0.439 µM	2.91	1.72 µM	13.9 µM	15.8	92.2 µM
O=C(O)CCCc1ccc(N(CCCl)CCCl)cc1	29.6 µM and 117 µM	> 76.3 µM and 307 µM and 239 µM	21.7 µM and 152 µM	88.5 µM and 462 µM and 625 µM	–	57.8 µM and 351 µM and 485 µM	14.9 µM and 91.3 µM	–	10.3 µM and 97.8 µM	26.3 µM and 188 µM and 141 µM	–	13.1 µM and 100 µM and 99.4 µM	17.5 µM and 68 µM	57.8 µM and 366 µM and 159 µM	11.7 µM and 64.6 µM	–	20.4 µM and 196 µM	52 µM and 402 µM and 498 µM	27.3	333 µM and 292 µM
O=C(O)/C=C/C(=O)Nc1ncn[nH]1	–	> 100 µM	–	–	–	> 100 µM	–	> 100	–	–	–	> 100 µM	–	> 100 µM	–	> 100	–	> 100 µM	–	> 100 µM
ClCc1ccccc1CSc1ncnc2nc[nH]c12	> 60 µM	> 60 µM	> 60 µM	> 60 µM	> 60	> 60 µM	> 60 µM	> 60	> 60 µM	> 60 µM	–	–	> 60 µM	> 60 µM	> 60 µM	> 60	> 60 µM	> 60 µM	> 60	> 60 µM
COC(=O)c1c2c(c(C)[n+]([O-])c1C)C(=O)C=CC2=O	1.43 µM	3.31 µM	3.04 µM	36 µM	1.99	4.77 µM	1.78 µM	3.45	1.53 µM	2.92 µM	1.66	3.67 µM	0.339 µM	1.24 µM	1.78 µM	3.34	2.26 µM	5.38 µM	1.97	7.26 µM
CN(C)c1ccc2c(c1)oc(=O)c1ccccc12	–	27 µM	–	26.9 µM	–	–	–	26.5	–	24.5 µM	–	20.9 µM	–	25.4 µM	–	48.2	–	–	–	28.4 µM
Clc1ccc(Cc2nc3cc4ccccc4cc3[nH]2)cc1	5.33 µM	26.4 µM	50.8 µM	> 100 µM	9.64	> 100 µM	53.1 µM	> 100	26.8 µM	> 100 µM	82	> 100 µM	7.92 µM	37.1 µM	3.08 µM	30	14.7 µM	83.3 µM	23.1	88.6 µM
O=C1CCC(NC(=O)c2ccccc2)C(=O)N1 (stereo not drawn)	–	> 100 µM	–	–	–	> 100 µM	–	> 100	–	> 100 µM	–	> 100 µM	–	> 100 µM	–	> 100	–	> 100 µM	–	> 100 µM
COc1cccc(-c2nc(-c3cnccn3)n(Cc3ccccc3)n2)c1	–	> 100 µM	–	> 100 µM	–	> 100 µM	–	> 100	–	–	–	> 100 µM	–	> 100 µM	–	> 100	–	> 100 µM	–	> 100 µM
Cn1c(-c2nonc2N)nc2cnccc21	> 25 µM	> 25 µM	> 25 µM	> 25 µM	> 25	> 25 µM	> 25 µM	> 25	> 25 µM	> 25 µM	> 25	> 25 µM	> 25 µM	> 25 µM	> 25 µM	> 25	> 25 µM	> 25 µM	> 25	> 25 µM

Compound	GI50 (HCT-15 colon)	TGI (HCT-15 colon)	GI50 (K-562 leukemia)	TGI (K-562 leukemia)	GI50 (KM12 colon) [µM]	TGI (KM12 colon)	GI50 (M14 melanoma)	TGI (M14 melanoma) [µM]	GI50 (MALME-3M melanoma)	TGI (MALME-3M melanoma)	GI50 (NCI-H522 lung) [µM]	TGI (NCI-H522 lung)	GI50 (OVCAR-8 ovarian)	TGI (OVCAR-8 ovarian)	GI50 (SF-295 CNS)	TGI (SF-295 CNS) [µM]	GI50 (SK-OV-3 ovarian)	TGI (SK-OV-3 ovarian)	GI50 (T-47D breast) [µM]	TGI (T-47D breast)
OC(c1cccc(C(F)(F)F)c1)c1cnccc1NC1CCCCCC1 (stereo not drawn)	1.81 µM	3.54 µM	1.57 µM	4.51 µM	1.93	3.75 µM	1.8 µM	3.64	1.51 µM	2.94 µM	1.65	3.56 µM	2.1 µM	4.59 µM	1.52 µM	3.06	7 µM	20 µM	1.79	4.82 µM
O=C(Cc1ccc(/C=C/C(=O)c2ncc[nH]2)cc1)Nc1ccc(Cl)cc1	0.879 µM	5.99 µM	–	–	1.3	5.23 µM	–	–	6.24 µM	18.5 µM	2.6	7.23 µM	3.65 µM	16 µM	3.33 µM	9.32	9.74 µM	> 25 µM	3.24	16.2 µM
Fc1ccc(-c2nn(-c3ccccc3)cc2-c2nc3ccccc3o2)cc1	1.83 µM	39 µM	1.25 µM	> 100 µM	3.25	> 100 µM	3.91 µM	15.1	1.71 µM	5.99 µM	3.62	16.8 µM	3.61 µM	> 100 µM	2.32 µM	8.3	8.46 µM	> 100 µM	37.3	> 100 µM
CN=C1NC(=O)/C(=C/c2ccc3ncccc3c2)S1	6.09 µM	> 25 µM	13.7 µM	> 25 µM	19.9	> 25 µM	9.6 µM	> 25	16 µM	> 25 µM	3.28	> 25 µM	7.73 µM	> 25 µM	7.97 µM	> 25	7.76 µM	24.8 µM	5.24	24.4 µM
CCOC(=O)c1cc(-c2ccc([N+](=O)[O-])cc2)n(-c2ccc(C(=O)O)c(O)c2)c1C	3.02 µM	12.2 µM	3.82 µM	> 100 µM	3.55	11.7 µM	4.26 µM	15.2	2.23 µM	12.5 µM	6.48	23.9 µM	5.29 µM	43.7 µM	3.72 µM	19.6	10.8 µM	23 µM	2.81	11.4 µM
NNC(=O)c1cnn(-c2ccnc3c(C(F)(F)F)cccc23)c1N	> 100 µM	> 100 µM	> 100 µM	> 100 µM	> 100	> 100 µM	–	–	> 100 µM	> 100 µM	> 100	> 100 µM	> 100 µM	> 100 µM	> 100 µM	> 100	> 100 µM	> 100 µM	> 100	> 100 µM
COc1ccc(CNC(=O)COc2ccc(/C=N/Nc3nc4ccccc4s3)cc2)cc1	3.44 µM	> 100 µM	–	–	2.51	> 100 µM	4.69 µM	> 100	1.55 µM	3.89 µM	2.44	9.63 µM	3.93 µM	> 100 µM	3.25 µM	11.2	–	–	1.69	5.36 µM
O=C(O)Cc1c[nH]c2ccc(F)cc12	–	> 100 µM	–	> 100 µM	–	> 100 µM	–	> 100	–	–	–	–	–	> 100 µM	–	> 100	–	> 100 µM	–	> 100 µM
COc1ccc(CN2CCCC(C(=O)c3ccc(C(F)(F)F)cc3)C2)c(O)c1 (stereo not drawn)	14.6 µM	36 µM	19.3 µM	93.3 µM	30.5	86 µM	–	–	18.2 µM	35.5 µM	19.3	42.2 µM	36.6 µM	> 100 µM	16.8 µM	45.9	36.1 µM	> 100 µM	22.1	80.1 µM
CNC(=O)c1cc(Oc2ccc3c(c2)sc2nc(-c4ccc(N)cc4)cn23)ccn1	0.122 µM	> 100 µM	0.0911 µM	> 100 µM	0.196	> 100 µM	0.162 µM	> 100	–	–	0.165	0.573 µM	0.39 µM	> 100 µM	0.104 µM	> 100	0.47 µM	> 100 µM	0.397	57.6 µM
COc1cc2c(cc1OC)C1C=NC(C(=O)O)(C2)c2ccccc21 (stereo not drawn)	–	> 100 µM	–	> 100 µM	–	> 100 µM	–	> 100	–	> 100 µM	–	> 100 µM	–	> 100 µM	–	> 100	–	> 100 µM	–	–
O=C1/C(=C/c2ccccc2)CN(C(=O)Oc2ccc(Cl)cc2)C/C1=C\c1ccccc1	–	2.73 µM	–	5.79 µM	–	3.28 µM	–	3.48	–	26.7 µM	–	5.51 µM	–	3.6 µM	–	5.79	–	20.5 µM	–	–
c1ccc(-c2nnc(-c3nn(-c4ccccc4)c4nc5ccccc5nc34)o2)cc1	–	> 100 µM	–	> 100 µM	–	> 100 µM	–	> 100	–	> 100 µM	–	> 100 µM	–	> 100 µM	–	> 100	–	> 100 µM	–	–
CCOC(=O)c1c(N)n(-c2ccccc2)c(=S)n(-c2ccccc2)c1=O	–	> 100 µM	–	> 100 µM	–	> 100 µM	–	> 100	–	> 100 µM	–	> 100 µM	–	> 100 µM	–	> 100	–	–	–	> 100 µM
O=C(O)c1cc(S(=O)(=O)N=NC=C2c3ccccc3N(O)c3ccccc32)ccc1O	–	21.2 µM	–	> 100 µM	–	> 100 µM	–	79.2	–	50.3 µM	–	23.8 µM	–	> 100 µM	–	20.1	–	92.2 µM	–	–
